In paper PMC10523091, “Stereo/regio-selective access to substituted 3-hydroxy-oxindoles with anti-proliferative assessment and in silico validation” (RSC Advances, 2023):
Like-named read-outs stand apart in the source and are kept apart here.

Experiments:
HCT116 = test: MTS cell viability assay, HCT116; format: cell-based; conditions: for SI HCT116: SI = (IC50 for normal cell line FHC)/(IC50 for HCT116)
Description: (§1) The newly synthesized compounds were subjected to assessment for their potential to inhibit the proliferation of various cancer cell lines including colorectal carcinoma (HCT116), ovarian cancer (OVCAR 10), and human metastatic melanoma (1205Lu), and non-cancerous fetal human cells (FHC). […] In order to ascertain whether compound 4j is selectively cytotoxic or anti-proliferative to cancer cells, it was tested for non-cancerous fetal human cells (FHC).
(§2) HCT116, OVCAR 10, 1205Lu, and FHC cell lines were procured from American Type Culture Collection (ATCC, Manassas, VA, USA). All the cells were grown based on the recommendations by ATCC at 37 °C in a humidified atmosphere with CO2. Stock solutions of compounds were made up and delivered to cells in DMSO.
(§3) The cell viability assay was performed as described earlier[27] HCT116, OVCAR 10, 1205Lu, and FHC adherent cell lines were seeded in 96-well plate at a density of 5 × 10^3 cells per well. Next day, the cells were treated with the respective compounds at different doses for 48 h in triplicates. At the end of the treatment duration, the media were removed and fresh media were added containing 20 μL of [3-(4,5-dimethylthiazol-2-yl)-5-(3-carboxymethoxyphenyl)-2-(4-sulfophenyl)-2H-tetrazolium] (MTS) reagent per well (Promega, WI, USA). The optical densities of the solubilized formazan crystals were read with a 96-well multi-scanner (Dynex Technologies, MRX Revelation; Chantilly, VA, USA) at 490 nm and 630 nm, and the normalized percent viability was calculated. The IC50 values were calculated using non-linear regression (curve fit).

FHC = test: MTS cell viability assay, non-cancerous FHC; format: cell-based; conditions: 48 h treatment, non-cancerous fetal human cells, read-out: IC50 (μM) ± SD FHC
Description: as §1, §2, §3

1205Lu = test: MTS cell viability assay, 1205Lu; format: cell-based, human; conditions: for SI 1205Lu: SI = (IC50 for normal cell line FHC)/(IC50 for 1205Lu)
Description: as §1, §2, §3

OVCAR 10 = test: MTS cell viability assay, OVCAR 10; format: cell-based; conditions: for SI OVCAR10: SI = (IC50 for normal cell line FHC)/(IC50 for OVCAR10)
Description: as §1, §2, §3

HCT-116 cells [1] = test: Caspase 3/7 7-AAD apoptosis assay; format: cell-based; conditions: 10 μM
Description: (§4) We further carried out apoptosis experiments utilizing the caspase-3/7 7-AAD and Annexin V/7-AAD assays to evaluate the mode of cell death.
(§5) The apoptosis assay using Muse Annexin V/7-AAD and Caspase 3/7 7-AAD assay kit (EMD Millipore, Darmstadt, Germany) was performed following manufacturer's protocol as described earlier.[28] Briefly, the cells were seeded in 6-well plate at a density of 1 × 10^5 cells per well. After 24 h incubation, the cells were treated with 10 μM of compound 4j. The cells were incubated for 24 and 48 h. At the end of the treatment period, the cells were harvested using enzyme free cell dissociation buffer. The samples were treated with the respective dyes based on the manufacturer's protocol. The samples were further analysed in Muse Cell Analyzer (Merck Millipore, Darmstadt, Germany).

HCT-116 cells [2] = test: Annexin V/7-AAD apoptosis assay; format: cell-based; conditions: 10 μM
Description: as §4, §5

[3] = Homo sapiens, HCT-116, MTS assay, 48 h treatment, colorectal carcinoma, read-out: IC50 (μM) ± SD HCT116
[4] = 1205Lu, MTS assay, 48 h treatment, human metastatic melanoma, read-out: IC50 (μM) ± SD 1205Lu
[5] = MTS assay, 48 h treatment, ovarian cancer, read-out: IC50 (μM) ± SD OVCAR 10
[6] = Homo sapiens, HCT-116, repeated in docking table, unit inferred, read-out: IC50 HCT116
[7] = Homo sapiens, 1205Lu, repeated in docking table, unit inferred, read-out: IC50 1205Lu
[8] = repeated in docking table, unit inferred, read-out: IC50 OVCAR10

Structure (SMILES): O=C1N(Cc2ccccc2)c2ccccc2C1(O)CN1CCCCC1 (stereo not shown) [Compound 4b, 1-Benzyl-3-hydroxy-3-(piperidin-1-ylmethyl)indolin-2-one]
- IC50 (HCT116; [3]): 85.2 ± 15.3 µM
- IC50 (FHC; FHC): 63.5 ± 22.2 µM
- IC50 (1205Lu; [4]): 65.3 ± 15.3 µM
- IC50 (OVCAR 10; [5]): 69.2 ± 16.2 µM

Structure (SMILES): O=C1N(Cc2ccccc2)c2c(Br)cc(Br)cc2C1(O)CN1CCOCC1 (stereo not shown) [Compound 4j, 1-Benzyl-5,7-dibromo-3-hydroxy-3-(morpholinomethyl)indolin-2-one]
- apoptotic cell population, Caspase 3/7 7-AAD (HCT-116 cells [1]; 24 h): 21.5%
- apoptotic cell population, Caspase 3/7 7-AAD (HCT-116 cells [1]; 48 h): 57.9%
- IC50 (HCT116; [3]): 9.63 ± 1.3 µM
- IC50 (HCT116; [6]): 9.63 µM
- SI HCT116 (HCT116): 2.12
- IC50 (FHC; FHC): 20.6 ± 3.1 µM
- IC50 (1205Lu; [4]): 12.2 ± 1.7 µM
- IC50 (1205Lu; [7]): 12.2 µM
- SI 1205Lu (1205Lu): 1.68
- apoptotic cells, Annexin V/7-AAD (HCT-116 cells [2]; 24 h): 19.5%
- apoptotic cells, Annexin V/7-AAD (HCT-116 cells [2]; 48 h): 46.15%
- IC50 (OVCAR 10; [5]): 8.56 ± 1.1 µM
- SI OVCAR10 (OVCAR 10): 2.40
- IC50 (OVCAR 10; [8]): 8.56 µM

Structure (SMILES): O=c1[nH]cc(F)c(=O)[nH]1 [Compound 5-FU, 5-fluorouracil, reference compound]
- IC50 (HCT116; [3]): 22.3 ± 1.7 µM
- IC50 (HCT116; [6]): 22.3 µM
- SI HCT116 (HCT116): 0.95
- IC50 (FHC; FHC): 21.3 ± 4.2 µM
- IC50 (1205Lu; [4]): 15.4 ± 2.9 µM
- IC50 (1205Lu; [7]): 15.4 µM
- SI 1205Lu (1205Lu): 1.38
- IC50 (OVCAR 10; [5]): 22.4 ± 4.1 µM
- SI OVCAR10 (OVCAR 10): 0.95
- IC50 (OVCAR 10; [8]): 22.4 µM

Structure (SMILES): O=C1N(Cc2ccccc2)c2c(Br)cc(Br)cc2C1(O)CN1CCCC1 (stereo not shown) [Compound 4l]
- IC50 (HCT116; [3]): 91.5 ± 26.9 µM
- IC50 (FHC; FHC): 94.8 ± 15.3 µM
- IC50 (1205Lu; [4]): 91.6 ± 18.3 µM
- IC50 (OVCAR 10; [5]): 94.3 ± 18 µM

Structure (SMILES): O=C1Nc2ccccc2C1(O)CN1CCOCC1 (stereo not shown) [Compound 4m, 3-Hydroxy-3-(morpholinomethyl)indolin-2-one]
- IC50 (HCT116; [3]): 95.4 ± 9.66 µM
- IC50 (FHC; FHC): 89.4 ± 14.6 µM
- IC50 (1205Lu; [4]): 99.7 ± 11.5 µM
- IC50 (OVCAR 10; [5]): 92.3 ± 18.2 µM

Structure (SMILES): O=C1N(Cc2ccccc2)c2c(Br)cc(Br)cc2C1(O)CN1CCCCC1 (stereo not shown) [Compound 4k, 1-Benzyl-5,7-dibromo-3-hydroxy-3-(piperidin-1ylmethyl)indolin-2-one]
- IC50 (HCT116; [3]): 110 ± 24.4 µM
- IC50 (HCT116; [6]): 110 µM
- IC50 (FHC; FHC): 88.6 ± 20.3 µM
- IC50 (1205Lu; [4]): 89.9 ± 16.8 µM
- IC50 (1205Lu; [7]): 89.9 µM
- melting point: 170 to 172 °C
- IC50 (OVCAR 10; [5]): 91.2 ± 18.7 µM
- IC50 (OVCAR 10; [8]): 91.2 µM

Structure (SMILES): O=C1N(Cc2ccccc2)c2ccccc2C1(O)CN1CCOCC1 (stereo not shown) [Compound 4a, 1-Benzyl-3-hydroxy-3-(morpholinomethyl)indolin-2-one]
- IC50 (HCT116; [3]): 104 ± 25 µM
- IC50 (FHC; FHC): 122 ± 13.2 µM
- IC50 (1205Lu; [4]): 111 ± 18.9 µM
- IC50 (OVCAR 10; [5]): 120 ± 15.4 µM

Structure (SMILES): O=C1N(Cc2ccccc2)c2ccc(Cl)cc2C1(O)CN1CCCC1 (stereo not shown) [Compound 4i, 1-Benzyl-5-chloro-3-hydroxy-3-(pyrrolidin-1-ylmethyl)indolin-2-one]
- IC50 (HCT116; [3]): 93.4 ± 19.3 µM
- IC50 (FHC; FHC): 96.5 ± 22.2 µM
- IC50 (1205Lu; [4]): 96.4 ± 18.8 µM
- melting point: 121 to 124 °C
- IC50 (OVCAR 10; [5]): 81.5 ± 12.5 µM

Structure (SMILES): O=C1N(Cc2ccccc2)c2ccccc2C1(O)CN1CCCC1 (stereo not shown) [Compound 4c, 1-Benzyl-3-hydroxy-3-(pyrrolidin-1-ylmethyl)indolin-2-one]
- IC50 (HCT116; [3]): 65.9 ± 16.7 µM
- IC50 (FHC; FHC): 76.3 ± 14.5 µM
- IC50 (1205Lu; [4]): 78.2 ± 24 µM
- melting point: 169 to 171 °C
- IC50 (OVCAR 10; [5]): 61.2 ± 13.2 µM

Structure (SMILES): O=C1N(Cc2ccccc2)c2ccc(Br)cc2C1(O)CN1CCCCC1 (stereo not shown) [Compound 4e, 1-Benzyl-5-bromo-3-hydroxy-3-(piperidin-1-ylmethyl)indolin-2-one]
- IC50 (HCT116; [3]): 92.2 ± 17.2 µM
- IC50 (FHC; FHC): 88.3 ± 16.9 µM
- IC50 (1205Lu; [4]): 98 ± 13.2 µM
- melting point: 189 to 191 °C
- IC50 (OVCAR 10; [5]): 93.1 ± 15.6 µM

Structure (SMILES): O=C1N(Cc2ccccc2)c2ccc(Cl)cc2C1(O)CN1CCCCC1 (stereo not shown) [Compound 4h]
- IC50 (HCT116; [3]): 117 ± 19.6 µM
- IC50 (FHC; FHC): 106 ± 17.2 µM
- IC50 (1205Lu; [4]): 110 ± 18.4 µM
- IC50 (OVCAR 10; [5]): 130 ± 17.2 µM

Structure (SMILES): N.N.[Cl][Pt][Cl] [Cisplatin, cisplatin, reference compound]
- IC50 (HCT116; MTS assay, 48 h treatment, colorectal carcinoma, read-out: IC50 (μM) ± SD HCT116): 12.1 ± 2.5 µM
- SI HCT116 (HCT116): 2.07
- IC50 (FHC): 25.1 ± 3.2 µM
- IC50 (1205Lu; MTS assay, 48 h treatment, human metastatic melanoma, read-out: IC50 (μM) ± SD 1205Lu): 19 ± 1.5 µM
- SI 1205Lu (1205Lu): 1.3
- IC50 (OVCAR 10; [5]): 18.2 ± 2.5 µM
- SI OVCAR10 (OVCAR 10): 1.37

Structure (SMILES): O=C1Nc2ccccc2C1(O)CN1CCCC1 (stereo not shown) [Compound 4o, 3-Hydroxy-3-(pyrrolidin-1-ylmethyl)indolin-2-one]
- IC50 (HCT116; [3]): 102 ± 18.7 µM
- IC50 (FHC; FHC): 95.7 ± 13 µM
- IC50 (1205Lu; [4]): 130 ± 14 µM
- IC50 (OVCAR 10; [5]): 116 ± 11.8 µM

Structure (SMILES): O=C1N(Cc2ccccc2)c2ccc(Br)cc2C1(O)CN1CCCC1 (stereo not shown) [Compound 4f, 1-Benzyl-5-bromo-3-hydroxy-3-(pyrrolidin-1-ylmethyl)indolin-2-one]
- IC50 (HCT116; [3]): 85.3 ± 16 µM
- IC50 (FHC; FHC): 81.3 ± 15.6 µM
- IC50 (1205Lu; [4]): 85.6 ± 13.2 µM
- melting point: 144 to 146 °C
- IC50 (OVCAR 10; [5]): 88.5 ± 18.9 µM

Structure (SMILES): O=C1N(Cc2ccccc2)c2ccc(Cl)cc2C1(O)CN1CCOCC1 (stereo not shown) [Compound 4g, 1-Benzyl-5-chloro-3-hydroxy-3-(morpholinomethyl)indolin-2-one]
- IC50 (HCT116; [3]): 121 ± 17.1 µM
- IC50 (FHC; FHC): 121 ± 21.2 µM
- IC50 (1205Lu; [4]): 125 ± 19.8 µM
- melting point: 191 to 193 °C
- IC50 (OVCAR 10; [5]): 112 ± 11.7 µM

Structure (SMILES): O=C1N(Cc2ccccc2)c2ccc(Br)cc2C1(O)CN1CCOCC1 (stereo not shown) [Compound 4d, 1-Benzyl-5-bromo-3-hydroxy-3-(morpholinomethyl)indolin-2-one]
- IC50 (HCT116; [3]): 84.1 ± 19.4 µM
- IC50 (FHC; FHC): 73.2 ± 19.6 µM
- IC50 (1205Lu; [4]): 81.2 ± 15.1 µM
- IC50 (OVCAR 10; [5]): 87.9 ± 13 µM

Structure (SMILES): O=C1Nc2ccccc2C1(O)CN1CCCCC1 (stereo not shown) [Compound 4n, 3-Hydroxy-3-(piperidin-1-ylmethyl)indolin-2-one]
- IC50 (HCT116; [3]): 105 ± 23.3 µM
- IC50 (FHC; FHC): 96.8 ± 18.5 µM
- IC50 (1205Lu; [4]): 109 ± 24.7 µM
- melting point: 154 to 156 °C
- IC50 (OVCAR 10; [5]): 112 ± 21.3 µM
